Like-named read-outs stand apart in the source and are kept apart here.
Experiments:
[1] = target: P. falciparum LDH (Plasmodium falciparum, UniProt Q27743); test: Fluorescence-coupled LDH enzyme assay on microfluidics system with continuously variable concentration gradient; format: biochemical
Excerpt: A fluorescence-coupled enzyme assay was developed using a microfluidics system described herein for creating a continuously variable concentration gradient to monitor the reduction of NAD^+ by the enzyme LDH to give a fluorescent end product. This system was then adapted to measure potency and determine mechanism of inhibition by various inhibitors of LDH.
One of the products of the reaction in the assay, NADH, is coupled to Thermus thermophilus NADH oxidase to generate H2O2, which in turn is coupled to horseraddish peroxidase which reacts with […] and amplex red (Molecular Probes, Inc., Eugene, Oreg., U.S.A.) to give the fluorescent product resorufin. […]
The novel data analysis techniques described herein for determining the mechanism of inhibition of an inhibitor (or mechanism of activation of an activator) are applied to the data produced from the microfluidics system. The titration of the enzyme with a continuous linear variation of inhibitor and substrate from zero to a pre-determined finite concentration yields a characteristic rate profile that is defined by the specific type of interaction of the inhibitor and enzyme with respect to the substrate. […]
The titration of LDH with a linear gradient of NAD^+ was performed on the microfluidics system described herein with the change in relative fluorescence intensity monitored under initial rate conditions. […]

[2] = target: rabbit muscle lactate dehydrogenase (LDH) (Oryctolagus cuniculus, UniProt P13491); test: Continuous variation method on a microtiter plate (step concentration gradients); format: biochemical; settings: limited data
Excerpt: Determination of the mechanism of inhibition by the inhibitor oxalate with respect to the substrate NAD^+ against the enzyme rabbit muscle lactate dehydrogenase (LDH) using a microtiter plate to generate individual step concentration gradients was attempted. FIG. 49 is a graph showing the results of the experiment. An attempt to determine the mechanism of inhibition by the inhibitor oxalate with respect to the substrate lactate against the enzyme rabbit muscle LDH using a microtiter plate to generate individual step concentration gradients was attempted. FIG. 50 is a graph showing the results of this experiment.

[3] = test system: LDH; settings: cited from earlier work

Sequence of P. falciparum LDH (Q27743 whole entry): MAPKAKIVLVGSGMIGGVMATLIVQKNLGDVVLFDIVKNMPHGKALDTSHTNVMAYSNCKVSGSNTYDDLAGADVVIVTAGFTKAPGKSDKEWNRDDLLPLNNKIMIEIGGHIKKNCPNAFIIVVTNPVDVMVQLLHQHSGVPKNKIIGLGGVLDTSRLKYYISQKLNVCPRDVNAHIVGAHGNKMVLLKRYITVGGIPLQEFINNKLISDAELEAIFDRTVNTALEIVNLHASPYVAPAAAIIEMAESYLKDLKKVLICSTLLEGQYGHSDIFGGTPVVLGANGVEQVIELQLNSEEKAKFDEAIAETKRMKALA

Compound	Km ([1]; titration of LDH with linear gradient of NAD^+, initial rate conditions)	mechanism of inhibition ([1]; with respect to substrate NAD^+)	mechanism of inhibition ([2]; with respect to NAD^+, ambiguous)	mechanism of inhibition ([2]; with respect to lactate)	inhibition mechanism ([3]; with respect to NAD^+)	inhibition mechanism ([3]; with respect to lactate, reported previously)
NC(=O)c1ccc[n+]([C@@H]2O[C@H](COP(=O)([O-])OP(=O)(O)OC[C@H]3O[C@@H](n4cnc5c(N)ncnc54)[C@H](O)[C@@H]3O)[C@@H](O)[C@H]2O)c1 [NAD^+]	54 ± 2 µM	–	–	–	–	–
O=C(O)C(=O)O [oxalate]	–	uncompetitive inhibition	uncompetitive inhibitor	competitive inhibitor	uncompetitive	competitive inhibitor

— patent US20090142846A1, “METHODS FOR MEASURING BIOCHEMICAL REACTIONS” (EKSIGENT TECHNOLOGIES, LLC, priority 2005, published 2009)
